Test results as given in PubChem BioAssay (NCI).
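Interpolation was linear, between the two tested concentrations surrounding the appropriate level; five concentrations were tested over 48 hours in 96-well plates. TGI denotes the concentration required for complete inhibition of growth.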

Tests used:
Assay in all cases: DTP human tumour cell line panel, 48 h
U251 CNS = tested on: U251 CNS
SK-MEL-28 melanoma = tested on: SK-MEL-28 melanoma
SNB-75 CNS = tested on: SNB-75 CNS
HT29 colon = tested on: HT29 colon
SN12C renal = tested on: SN12C renal
HOP-92 NSCLC = tested on: HOP-92 NSCLC
UACC-62 melanoma = tested on: UACC-62 melanoma
SK-MEL-5 melanoma = tested on: SK-MEL-5 melanoma
CAKI-1 renal = tested on: CAKI-1 renal
NCI-H226 lung = tested on: NCI-H226 lung
DLD-1 colon = tested on: DLD-1 colon
NCI-H522 lung = tested on: NCI-H522 lung
UACC-257 melanoma = tested on: UACC-257 melanoma
HL-60(TB) leukemia = tested on: HL-60(TB) leukemia
HOP-62 NSCLC = tested on: HOP-62 NSCLC
LOX IMVI melanoma = tested on: LOX IMVI melanoma
MOLT-4 leukemia = tested on: MOLT-4 leukemia
SK-OV-3 ovarian = tested on: SK-OV-3 ovarian
OVCAR-4 ovarian = tested on: OVCAR-4 ovarian
OVCAR-8 ovarian = tested on: OVCAR-8 ovarian

Compound	TGI (U251 CNS) [µM]	TGI (SK-MEL-28 melanoma) [µM]	TGI (SNB-75 CNS) [µM]	TGI (HT29 colon) [µM]	TGI (SN12C renal) [µM]	TGI (HOP-92 NSCLC) [µM]	TGI (UACC-62 melanoma) [µM]	TGI (SK-MEL-5 melanoma) [µM]	TGI (CAKI-1 renal) [µM]	TGI (NCI-H226 lung) [µM]	TGI (DLD-1 colon) [µM]	TGI (NCI-H522 lung) [µM]	TGI (UACC-257 melanoma) [µM]	TGI (HL-60(TB) leukemia) [µM]	TGI (HOP-62 NSCLC) [µM]	TGI (LOX IMVI melanoma) [µM]	TGI (MOLT-4 leukemia) [µM]	TGI (SK-OV-3 ovarian) [µM]	TGI (OVCAR-4 ovarian) [µM]	TGI (OVCAR-8 ovarian) [µM]
O=C(NC(Cc1ccc(I)cc1)C(=O)O)c1ccc(Br)cc1 (stereo unspecified)	> 100	> 100	> 100	> 100	> 100	> 100	> 100	> 100	> 100	> 100	> 100	> 100	> 100	> 100	> 100	> 100	> 100	> 100	> 100	> 100
N=C(N)c1ccc(N=Nc2c(O)ccc3c2[nH]c2ccccc23)cc1	–	> 70.9	> 100	> 100	> 83.4	> 100	> 100	> 100	> 100	> 90.6	–	> 100	> 89.1	> 100	> 100	–	5.27	79.9	> 28.5	–
COc1ccc2nc3ccccc3c(NCCCCCCN(CCCl)CCCl)c2c1	1.57	76.1	0.0924	1.28	–	–	–	1.64	0.197	1.53	2.2	–	> 22.9	0.592	2.42	0.0394	–	2.74	1.05	–
COC(=O)C1=C(C(=O)OC)SC2(S1)C1=C(CCCC1)SC(C(=O)OC)=C2C(=O)OC	19.4	22.5	–	11.7	14.6	18.3	25.7	23.4	13.5	–	–	4.36	28.9	> 100	17.8	5.3	11.6	28.1	25.3	17.3
COc1ccc(/C(Cl)=C(\C=O)c2ccc(F)cc2)cc1OC	33.6	68.4	13.7	36.3	77.1	29.3	61.6	37.7	63.2	47.2	78.4	46.5	–	37.5	52.6	30.7	71.7	77.2	–	> 100
COc1cc(Nc2c3ccccc3nc3ccccc23)ccc1NS(C)(=O)=O	25.2	20.4	47.1	–	9.32	–	26.7	28.6	–	23.5	22	12.9	24.2	30.1	24.3	> 100	> 100	30.8	12.3	17.2
Nc1ccc2[nH]c3c(-c4ccccc4)nccc3c2c1	> 100	> 100	> 92.7	> 100	> 100	> 100	> 80.8	> 31.6	–	> 86.1	> 100	> 100	> 100	38.2	> 100	> 100	22.8	> 100	> 75.5	> 100
Cc1[nH]c(=O)[nH]c(=O)c1/C=C/C(=O)O	> 1000	> 1000	> 1000	> 1000	> 1000	62.6	> 1000	> 1000	> 1000	> 1000	> 1000	> 1000	> 1000	> 1000	> 1000	> 1000	> 1000	> 1000	> 1000	> 1000
